For data set [1], the target named is Transient receptor potential cation channel subfamily V member 4 (Homo sapiens, UniProt Q9HBA0). Put plainly: Antagonist activity at human TRPV4 assessed as inhibition of 4alpha-PDD-induced activation.
The nature of data set [2]: Stability in rat liver microsomes assessed as parent compound remaining after 30 mins in presence or absence of NADPH. The note with it: read-out: Stability. The format is ADME, microsome. Background: Microsomes from liver hold many membrane-bound enzymes, among them those of drug oxidation.
Data set [3] is described as follows: Stability in human liver microsomes assessed as parent compound remaining after 30 mins in presence or absence of NADPH. The format is ADME, microsome. The note with it: read-out: Stability.
Data set [4] deals with Transient receptor potential cation channel subfamily V member 4 (Rattus norvegicus, UniProt Q9ERZ8). In words: Antagonist activity at rat TRPV4 assessed as inhibition of 4alpha-PDD-induced activation.
Sequence of Transient receptor potential cation channel subfamily V member 4 (Rattus norvegicus, UniProt Q9ERZ8) (Q9ERZ8 whole entry): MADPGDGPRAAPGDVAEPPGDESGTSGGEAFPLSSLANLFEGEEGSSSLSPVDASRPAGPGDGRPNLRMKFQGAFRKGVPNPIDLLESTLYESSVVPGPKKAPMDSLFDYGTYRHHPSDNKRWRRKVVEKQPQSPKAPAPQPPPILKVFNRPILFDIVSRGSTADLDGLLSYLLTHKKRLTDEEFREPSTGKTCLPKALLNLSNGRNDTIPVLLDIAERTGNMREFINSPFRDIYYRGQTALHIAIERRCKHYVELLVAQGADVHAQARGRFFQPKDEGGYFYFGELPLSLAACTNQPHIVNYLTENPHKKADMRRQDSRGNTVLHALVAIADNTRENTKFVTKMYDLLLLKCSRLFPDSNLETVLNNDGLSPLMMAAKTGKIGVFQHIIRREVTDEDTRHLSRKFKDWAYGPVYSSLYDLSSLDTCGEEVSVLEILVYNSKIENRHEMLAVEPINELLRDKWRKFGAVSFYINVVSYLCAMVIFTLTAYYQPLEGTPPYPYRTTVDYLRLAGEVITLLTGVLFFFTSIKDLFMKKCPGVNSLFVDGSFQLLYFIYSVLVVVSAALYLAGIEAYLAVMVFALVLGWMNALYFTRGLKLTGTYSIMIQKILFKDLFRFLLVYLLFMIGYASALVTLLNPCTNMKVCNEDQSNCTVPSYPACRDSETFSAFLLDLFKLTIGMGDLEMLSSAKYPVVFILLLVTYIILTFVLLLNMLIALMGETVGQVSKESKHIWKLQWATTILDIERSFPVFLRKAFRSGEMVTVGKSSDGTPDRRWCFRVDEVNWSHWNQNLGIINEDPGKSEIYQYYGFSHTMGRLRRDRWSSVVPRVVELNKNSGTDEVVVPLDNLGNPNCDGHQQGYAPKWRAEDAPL
Data set [5] is described as follows: Antagonist activity at guinea pig TRPV4 assessed as inhibition of 4alpha-PDD-induced activation. Details: species or system Cavia porcellus.
Data set [6] has as its system Rattus norvegicus. In words: Analgesic activity in rat assessed as reversal of complete Freund's adjuvant-induced mechanical hyperalgesia at 30 mg/kg, po after 5 hrs relative to control. The format is functional.
Data set [7] deals with Rattus norvegicus. In words: Analgesic activity in rat assessed as reversal of complete Freund's adjuvant-induced mechanical hyperalgesia at 30 mg/kg, po after 1 hr relative to control. The format is functional.
Data set [8] in a line: Selectivity ratio of IC50 for rat TRPV4 to IC50 for human TRPV4.
The nature of data set [9]: Protein binding in guinea pig. The format is ADME, Cavia porcellus. The note with it: read-out: PB (converted).
A short description of data set [10]: Plasma concentration in po dosed Dunkin-Hartley guinea pig complete Freund's adjuvant-induced mechanical hyperalgesia model measured up to 6 hrs post dose. In kind it is ADME, organism-based, Cavia porcellus.
For a further data set, the system named is Cavia porcellus. Put plainly: Analgesic activity in po dosed Dunkin-Hartley guinea pig complete Freund's adjuvant-induced mechanical hyperalgesia model assessed as reversal in paw withdrawal threshold measured up to 6 hrs post dose relative to control. The format is functional.
A short description of data set [11]: Ratio of free plasma concentration to IC50 for TRPV4 in guinea pig. In kind it is ADME, cell-free, Cavia porcellus.

Experimental findings from ChEMBL document CHEMBL3853343, “Discovery of novel 2',4'-dimethyl-[4,5'-bithiazol]-2-yl amino derivatives as orally bioavailable TRPV4 antagonists for the treatment of pain: Part 2” (Bioorg Med Chem Lett, 2016) are described below.

Structures are written as SMILES.

Sequence of Transient receptor potential cation channel subfamily V member 4 (Homo sapiens, UniProt Q9HBA0) (Q9HBA0 whole entry): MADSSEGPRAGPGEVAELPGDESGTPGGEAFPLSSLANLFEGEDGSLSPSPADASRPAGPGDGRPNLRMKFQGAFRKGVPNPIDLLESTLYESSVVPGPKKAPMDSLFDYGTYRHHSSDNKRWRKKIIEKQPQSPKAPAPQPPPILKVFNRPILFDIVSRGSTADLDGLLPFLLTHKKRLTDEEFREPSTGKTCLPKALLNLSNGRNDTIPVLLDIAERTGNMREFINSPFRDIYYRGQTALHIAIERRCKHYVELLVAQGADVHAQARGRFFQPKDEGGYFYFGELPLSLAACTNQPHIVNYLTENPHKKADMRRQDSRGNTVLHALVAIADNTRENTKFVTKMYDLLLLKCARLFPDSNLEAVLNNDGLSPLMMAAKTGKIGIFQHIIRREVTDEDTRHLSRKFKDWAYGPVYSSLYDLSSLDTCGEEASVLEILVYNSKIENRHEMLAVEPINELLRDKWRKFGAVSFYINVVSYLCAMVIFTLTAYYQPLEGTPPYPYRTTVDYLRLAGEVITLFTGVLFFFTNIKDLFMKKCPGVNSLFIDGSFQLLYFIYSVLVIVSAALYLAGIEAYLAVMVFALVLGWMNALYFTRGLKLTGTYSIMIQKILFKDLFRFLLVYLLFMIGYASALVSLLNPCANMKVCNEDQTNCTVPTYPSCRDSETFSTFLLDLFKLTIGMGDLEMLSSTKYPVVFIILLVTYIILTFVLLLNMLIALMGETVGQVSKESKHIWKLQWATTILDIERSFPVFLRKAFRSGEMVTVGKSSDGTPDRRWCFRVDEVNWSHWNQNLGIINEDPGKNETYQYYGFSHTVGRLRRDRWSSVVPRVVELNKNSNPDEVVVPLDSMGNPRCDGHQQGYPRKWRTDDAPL

For orientation: IC50 means the concentration at which inhibition is half-maximal. For `COC(=O)N1CC2CCC(C1)N2C(=O)c1ccc(Nc2nc(-c3sc(C)nc3C)cs2)nc1`, the values for the IC50 in data set [1], in [4] and in [5] were 0.0017 µM, 0.053 µM and 0.002 µM, respectively. The remaining at 0.5 h is 53% in data set [2] and 48.6% in data set [3].
As for `CNC(=O)N1CC2CCC(C1)N2C(=O)c1ccc(Nc2nc(-c3sc(C)nc3C)cs2)nc1`, the IC50 in data set [1] was 0.77 µM. Further, the remaining at 0.5 h in [2] was found to be 88.5%; in [3], 83.5%.
Consider `Cc1nc(C)c(-c2csc(Nc3ccc(C(=O)N4[C@@H]5CC[C@H]4C/C(=N/OCCCO)C5)cn3)n2)s1`, for which the IC50 in data set [1] is 0.0029 µM; in data set [4] it was 0.057 µM; in [5] it was 0.0033 µM. Also, the remaining at 0.5 h amounted to 59.1% in data set [2] and 64.5% in data set [3].
As to `Cc1nc(C)c(-c2csc(Nc3ccc(C(=O)N4C5CCC4CN(C4CCCCC4)C5)cn3)n2)s1`, the IC50 in data set [1] was 0.0028 µM. The remaining at 0.5 h came to 0% in data set [2] and 0.58% in [3].
For the molecule `COc1ccc2c(c1)c(CC(=O)O)c(C)n2C(=O)c1ccc(Cl)cc1` [INDOMETHACIN], the results for the Activity in the data set with Rattus norvegicus [6] and in the data set with Rattus norvegicus [7] were 6.1% and 11.4%, respectively.
Regarding `Cc1nc(C)c(-c2csc(Nc3ccc(C(=O)N4[C@@H]5CC[C@H]4C[C@@H](OC(=O)NCCF)C5)cn3)n2)s1`, the IC50 in [1] amounted to 0.0067 µM; in data set [4], 0.29 µM; in data set [5], 0.0062 µM.
Regarding `COC(=O)N1CC2CCCC(C1)N2C(=O)c1ccc(Nc2nc(-c3sc(C)nc3C)cs2)nc1`, the IC50 in [1] came out at 0.0018 µM. Further, the remaining at 0.5 h in data set [2] came out at 43.8%; in [3], 33.7%.
Turning to `Cc1nc(C)c(-c2csc(Nc3ccc(C(=O)N4[C@@H]5CC[C@H]4C/C(=N/O)C5)cn3)n2)s1`, the IC50 in [1] came out at 0.0084 µM. Besides, the figures for the remaining at 0.5 h in [2] and in [3] were 38.8% and 80.5%, respectively.
In the case of `CC(=O)N1CC2CCC(C1)N2C(=O)c1ccc(Nc2nc(-c3sc(C)nc3C)cs2)nc1`, the results for the IC50 in data set [1], in data set [4] and in data set [5] were 0.032 µM, 0.6 µM and 0.021 µM, respectively. For the same molecule, the remaining at 0.5 h in [2] amounted to 92.1%; in [3], 59.4%.
In the case of `Cc1nc(C)c(-c2csc(Nc3ccc(C(=O)N4[C@@H]5CC[C@H]4C[C@H](O)C5)cn3)n2)s1`, in data set [1], the IC50 was 0.65 µM.
Take `Cc1nc(C)c(-c2csc(Nc3ccc(C(=O)N4[C@@H]5CC[C@H]4C[C@@H](O)C5)cn3)n2)s1`: the IC50 in data set [1] came to 0.032 µM; in data set [4], 1 µM; in data set [5] it was 0.033 µM.
Taken in the same sequence, the figures for `Cc1nc(C)c(-c2csc(Nc3ccc(C(=O)N4[C@@H]5CC[C@H]4C[C@@H](OCCO)C5)cn3)n2)s1` were 0.0062 µM, 0.2 µM and 0.01 µM.
As to `Cc1nc(C)c(-c2csc(Nc3ccc(C(=O)N4[C@@H]5CC[C@H]4C/C(=N/OC4CCN(C)CC4)C5)cn3)n2)s1`, the IC50 in [1] was 0.0045 µM; in data set [4], 0.057 µM; in data set [5], 0.0064 µM. The results for the remaining at 0.5 h in [2] and in data set [3] were 83.7% and 77%, respectively.
For `Cc1nc(C)c(-c2csc(Nc3ccc(C(=O)N4[C@@H]5CC[C@H]4C[C@@H](NC(=O)CC(F)(F)F)C5)cn3)n2)s1`, in data set [1], the IC50 turned out to be 0.019 µM.
`Cc1nc(C)c(-c2csc(Nc3ccc(C(=O)N4C5CCC4CC(=O)C5)cn3)n2)s1`: the values for the IC50 in data set [1], in [4] and in [5] were 0.024 µM, 0.36 µM and 0.045 µM, respectively. The Ratio IC50 in data set [8] came to 15.
Regarding `Cc1nc(C)c(-c2csc(Nc3ccc(C(=O)N4[C@@H]5CC[C@H]4C/C(=N/OC[C@@H](O)C(F)(F)F)C5)cn3)n2)s1`, the IC50 stood at 0.0011 µM in data set [1], 0.029 µM in [4] and 0.0023 µM in data set [5]. The remaining at 0.5 h in data set [2] came out at 49.6%; in [3] it was 43%.
For `COC(=O)N1CCN(C(=O)c2ccc(Nc3nc(-c4sc(C)nc4C)cs3)nc2)CC1` the same measures were 0.037 µM, 1.1 µM, 0.056 µM, 77.9% and 94.1%.
Turning to `CO/N=C1\C[C@H]2CC[C@@H](C1)N2C(=O)c1ccc(Nc2nc(-c3sc(C)nc3C)cs2)nc1`, the IC50 in [1] stood at 0.001 µM. Besides, the values for the remaining at 0.5 h in data set [2] and in data set [3] were 12.5% and 79.1%, respectively.
As for `Cc1nc(C)c(-c2csc(Nc3ccc(C(=O)N4[C@@H]5CC[C@H]4CC(=NOCC(C)(C)O)C5)cn3)n2)s1`, the figures for the IC50 in data set [1] and in data set [5] were 0.0044 µM and 0.0083 µM, respectively. Further, the remaining at 0.5 h in data set [2] was 75.5%; in [3], 70%.
For `Cc1nc(C)c(-c2csc(Nc3ccc(C(=O)N4C5CCC4CN(c4ccc(Cl)cn4)C5)cn3)n2)s1`, the figures for the IC50 in data set [1], in data set [4] and in data set [5] were 0.0009 µM, 0.02 µM and 0.0007 µM, respectively. The remaining at 0.5 h in data set [2] turned out to be 89%; in [3], 72.7%.
As for `CCNC(=O)O[C@H]1C[C@H]2CC[C@@H](C1)N2C(=O)c1ccc(Nc2nc(-c3sc(C)nc3C)cs2)nc1`, in [1], the IC50 was 0.0019 µM.
As for `COC(=O)N1CCN(C(=O)c2ccc(Nc3nc(-c4sc(C)nc4C)cs3)nc2)C(C(F)(F)F)C1` (stereo not given), the IC50 in data set [1] is 0.00057 µM; in [4], 0.015 µM; in data set [5], 0.0027 µM. Moreover, the remaining at 0.5 h came out at 49.2% in data set [2] and 64.1% in data set [3].
Turning to `Cc1nc(C)c(-c2csc(Nc3ccc(C(=O)N4[C@@H]5CC[C@H]4C[C@@H](Oc4ncc(C(F)(F)F)cn4)C5)cn3)n2)s1`, the results for the IC50 in data set [1], in data set [4] and in data set [5] were 0.0048 µM, 0.12 µM and 0.0027 µM, respectively.
Regarding `Cc1nc(C)c(-c2csc(Nc3ccc(C(=O)N4[C@@H]5CC[C@H]4C/C(=N/OCC(F)(F)F)C5)cn3)n2)s1`, the IC50 worked out at 0.00036 µM in data set [1], 0.018 µM in data set [4] and 0.002 µM in data set [5]. For the same molecule, the values for the remaining at 0.5 h in data set [2] and in data set [3] were 50.4% and 47.7%, respectively.
`CO[C@H]1C[C@H]2CC[C@@H](C1)N2C(=O)c1ccc(Nc2nc(-c3sc(C)nc3C)cs2)nc1`: the IC50 in [1] came out at 0.0024 µM.
Turning to `Cc1nc(C)c(-c2csc(Nc3ccc(C(=O)N4C5CCC4CN(CC(F)(F)F)C5)cn3)n2)s1`, the IC50 in [1] was 0.0021 µM. Also, the remaining at 0.5 h was 8.5% in [2] and 0% in data set [3].
Take `Cc1nc(C)c(-c2csc(Nc3ccc(C(=O)N4C5CCC4CN(c4ccc(Cl)cc4)C5)cn3)n2)s1`: the IC50 in data set [1] was determined as 0.0032 µM; in data set [4], 0.41 µM; in data set [5], 0.0088 µM. In addition, the results for the remaining at 0.5 h in [2] and in [3] were 68.3% and 72.6%, respectively.
For `Cc1c(C(=O)Nc2cccc(C(F)(F)F)c2)cc(-c2ccccc2)n1CCCN1CCOCC1`, the IC50 in data set [1] was 0.057 µM.
`Cc1nc(C)c(-c2csc(Nc3ccc(C(=O)N4[C@@H]5CC[C@H]4C/C(=N/OCC(N)=O)C5)cn3)n2)s1`: the IC50 in [1] turned out to be 0.024 µM. In addition, the results for the remaining at 0.5 h in [2] and in [3] were 84.8% and 89%, respectively.
On to `Cc1nc(C)c(-c2csc(Nc3ccc(C(=O)N4C5CNCC4COC5)cn3)n2)s1`, for which the results for the IC50 in [1], in data set [4] and in data set [5] were 0.0032 µM, 0.1 µM and 0.0043 µM, respectively. For the same molecule, the remaining at 0.5 h in data set [2] turned out to be 71.5%; in data set [3], 57.9%.
For `Cc1nc(C)c(-c2csc(Nc3ccc(C(=O)N4C5CCC4CNC5)cn3)n2)s1`, in data set [1], the IC50 was found to be 0.62 µM. The remaining at 0.5 h in data set [2] worked out at 63.9%; in data set [3] it was 64.9%.
For the molecule `Cc1nc(C)c(-c2csc(Nc3ccc(C(=O)N4C5COCC4CC(=O)C5)cn3)n2)s1`, the IC50 in data set [1] came out at 0.019 µM; in [4], 0.8 µM; in [5], 0.027 µM. Besides, the fraction unbound in [9] was 0.1. For the same molecule, the concentration at 6 h in data set [10] stood at 515 ng/mL. In data set [8], the Ratio IC50 amounted to 42. Moreover, the Activity in the data set with Cavia porcellus was found to be 30.8%. In addition, in data set [11], the Ratio was determined as 1.9.
Consider `Cc1nc(C)c(-c2csc(Nc3ccc(C(=O)N4[C@@H]5CC[C@H]4C/C(=N/OCCO)C5)cn3)n2)s1`, for which the IC50 in data set [1] turned out to be 0.006 µM. The remaining at 0.5 h in [2] was 74.5%; in data set [3], 84.9%.
`Cc1nc(C)c(-c2csc(Nc3ccc(C(=O)N4[C@@H]5CC[C@H]4C[C@@H](CO)C5)cn3)n2)s1`: in data set [1], the IC50 came out at 0.041 µM.
As for `CC(=O)N[C@H]1C[C@H]2CC[C@@H](C1)N2C(=O)c1ccc(Nc2nc(-c3sc(C)nc3C)cs2)nc1`, the IC50 in data set [1] amounted to 0.08 µM.
As for `Cc1nc(C)c(-c2csc(Nc3ccc(C(=O)N4C5CCC4CN(c4ncc(Cl)cn4)C5)cn3)n2)s1`, the results for the IC50 in data set [1], in [4] and in [5] were 0.0003 µM, 0.016 µM and 0.002 µM, respectively. Further, the values for the remaining at 0.5 h in [2] and in [3] were 68.4% and 76.4%, respectively.
Consider `Cc1nc(C)c(-c2csc(Nc3ccc(C(=O)N4[C@@H]5CC[C@H]4C[C@@H](N)C5)cn3)n2)s1`, for which the IC50 in data set [1] was 0.53 µM.
